# ChEMBL document CHEMBL4828715, “Discovery, Structure-Activity Relationships, and In Vivo Evaluation of Novel Aryl Amides as Brain Penetrant Adaptor Protein 2-Associated Kinase 1 (AAK1) Inhibitors for the Treatment of Neuropathic Pain” (J Med Chem, 2021)
# Active and inactive are the calls of the source. The calls are words filed in the database; no cut-off is given here.
# Key:
# [1] = Drug concentration in brain of Sprague-Dawley rat model of chronic constriction injury-induced neuropathic pain at 1 mg/kg, sc; assay type: ADME, organism-based; details: in vivo, read-out: Ct
# [2] = molecular target: T1, AP2-associated protein kinase 1 (Homo sapiens, UniProt Q2M2I8); test: Inhibition of human AAK1 expressed in HEK293 cells assessed as suppression of AP2 phosphorylation measured after 3 hrs by Western blot analysis; assay type: cell-based
# T1 sequence (Q2M2I8 whole entry): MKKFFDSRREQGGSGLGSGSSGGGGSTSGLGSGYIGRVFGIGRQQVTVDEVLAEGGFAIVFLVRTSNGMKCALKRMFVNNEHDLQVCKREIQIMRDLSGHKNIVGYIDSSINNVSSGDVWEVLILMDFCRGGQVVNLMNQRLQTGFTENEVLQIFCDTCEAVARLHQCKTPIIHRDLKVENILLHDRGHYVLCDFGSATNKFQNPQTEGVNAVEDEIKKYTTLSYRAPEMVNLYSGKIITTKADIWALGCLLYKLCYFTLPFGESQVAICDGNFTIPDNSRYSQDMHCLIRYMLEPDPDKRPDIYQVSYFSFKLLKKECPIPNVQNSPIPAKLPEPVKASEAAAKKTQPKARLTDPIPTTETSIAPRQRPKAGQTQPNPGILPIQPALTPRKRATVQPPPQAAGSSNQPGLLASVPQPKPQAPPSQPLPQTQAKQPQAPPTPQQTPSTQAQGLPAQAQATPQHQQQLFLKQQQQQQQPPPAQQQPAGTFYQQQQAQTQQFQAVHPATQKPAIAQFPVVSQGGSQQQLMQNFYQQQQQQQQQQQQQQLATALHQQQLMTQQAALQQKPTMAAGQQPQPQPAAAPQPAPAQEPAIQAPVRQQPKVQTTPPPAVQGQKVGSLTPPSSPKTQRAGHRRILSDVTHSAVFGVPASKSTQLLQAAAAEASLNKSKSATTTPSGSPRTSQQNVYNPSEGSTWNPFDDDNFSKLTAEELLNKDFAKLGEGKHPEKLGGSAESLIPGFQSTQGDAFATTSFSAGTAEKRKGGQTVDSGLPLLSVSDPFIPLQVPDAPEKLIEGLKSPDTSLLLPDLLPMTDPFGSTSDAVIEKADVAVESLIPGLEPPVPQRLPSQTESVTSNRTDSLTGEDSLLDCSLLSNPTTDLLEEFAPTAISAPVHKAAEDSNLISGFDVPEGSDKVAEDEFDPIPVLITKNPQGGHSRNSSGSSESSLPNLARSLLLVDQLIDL
# [3] = Unbound drug concentration in brain of Sprague-Dawley rat model of chronic constriction injury-induced neuropathic pain at 10 mg/kg, sc; assay type: ADME, organism-based; details: in vivo
# [4] = molecular target: G protein-coupled receptor kinase 4 (Homo sapiens) (UniProt P32298); test: Inhibition of wild-type human full length GRK4 (M1 to C578 residues) expressed in bacterial expression system assessed as residual binding level at 1 uM by Kinomescan method relative to control
# G protein-coupled receptor kinase 4 (Homo sapiens), sequence (P32298 whole entry, looked up, the tested form may be a part): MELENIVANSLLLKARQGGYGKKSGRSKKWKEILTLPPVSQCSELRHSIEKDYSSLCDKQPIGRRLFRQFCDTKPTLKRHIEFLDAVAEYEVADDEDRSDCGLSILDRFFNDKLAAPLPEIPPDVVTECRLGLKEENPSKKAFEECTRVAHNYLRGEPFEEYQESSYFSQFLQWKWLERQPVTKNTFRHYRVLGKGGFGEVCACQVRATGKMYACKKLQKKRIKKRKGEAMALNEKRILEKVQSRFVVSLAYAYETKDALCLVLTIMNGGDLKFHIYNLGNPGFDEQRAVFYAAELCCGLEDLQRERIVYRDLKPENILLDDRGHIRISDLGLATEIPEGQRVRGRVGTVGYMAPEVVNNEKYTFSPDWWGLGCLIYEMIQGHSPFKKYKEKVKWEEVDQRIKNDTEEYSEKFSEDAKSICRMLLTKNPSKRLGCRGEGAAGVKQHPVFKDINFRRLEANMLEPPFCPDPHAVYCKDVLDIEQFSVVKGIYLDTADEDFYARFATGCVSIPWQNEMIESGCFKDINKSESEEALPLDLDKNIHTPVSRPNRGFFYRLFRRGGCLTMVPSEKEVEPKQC
# Mus musculus [5] = test: Antinociceptive activity against formalin-induced nociceptive behavior in C57BL6 mouse assessed as reduction in phase 2 hind paw flinching at 10 mg/kg, sc administered 60 mins prior to formalin challenge by formalin test; assay type: functional, organism-based
# [6] = molecular target: AP2-associated protein kinase 1 (Mus musculus) (UniProt Q3UHJ0); test: In vivo inhibition of AAK1 in C57BL6 mouse assessed as suppression of mu2 phosphorylation in brain lysate at 3 mg/kg, sc measured after 30 mins by Western blot analysis relative to control; assay type: functional, organism-based
# AP2-associated protein kinase 1 (Mus musculus), sequence (Q3UHJ0 whole entry, looked up): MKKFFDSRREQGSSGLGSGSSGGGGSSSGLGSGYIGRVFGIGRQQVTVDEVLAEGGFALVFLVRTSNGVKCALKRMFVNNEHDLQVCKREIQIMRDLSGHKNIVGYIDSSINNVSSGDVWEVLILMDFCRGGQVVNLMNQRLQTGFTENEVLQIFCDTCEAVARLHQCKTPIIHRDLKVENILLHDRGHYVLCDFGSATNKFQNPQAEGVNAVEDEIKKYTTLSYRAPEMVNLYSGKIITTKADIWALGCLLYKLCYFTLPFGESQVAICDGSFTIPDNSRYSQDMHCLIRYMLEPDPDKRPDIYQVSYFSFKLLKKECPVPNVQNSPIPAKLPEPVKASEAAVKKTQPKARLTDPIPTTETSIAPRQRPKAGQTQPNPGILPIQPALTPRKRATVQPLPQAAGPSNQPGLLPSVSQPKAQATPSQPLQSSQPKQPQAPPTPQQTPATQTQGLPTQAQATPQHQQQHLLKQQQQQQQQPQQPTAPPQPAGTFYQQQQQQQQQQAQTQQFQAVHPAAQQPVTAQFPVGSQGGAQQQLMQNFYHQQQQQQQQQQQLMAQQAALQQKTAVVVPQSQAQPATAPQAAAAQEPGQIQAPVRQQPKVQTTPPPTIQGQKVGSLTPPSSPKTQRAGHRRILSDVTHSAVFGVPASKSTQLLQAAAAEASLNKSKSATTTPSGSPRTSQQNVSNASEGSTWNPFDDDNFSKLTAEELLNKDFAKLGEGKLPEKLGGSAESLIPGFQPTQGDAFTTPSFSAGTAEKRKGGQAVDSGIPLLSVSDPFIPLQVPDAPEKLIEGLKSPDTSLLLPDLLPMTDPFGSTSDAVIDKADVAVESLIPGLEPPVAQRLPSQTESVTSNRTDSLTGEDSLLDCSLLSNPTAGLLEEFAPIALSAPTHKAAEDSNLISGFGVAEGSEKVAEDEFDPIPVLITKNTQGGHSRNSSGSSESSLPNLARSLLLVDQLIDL
# [7] = Drug concentration in plasma of C57BL6 mouse at 10 mg/kg, sc; assay type: ADME, organism-based; details: in vivo
# [8] = Permeability of the compound across basolateral to apical membrane in human Caco-2 cells incubated for 2 hrs by LC-MS/MS analysis; assay type: ADME, cell-based; details: caco-2, 2 h
# [9] = Drug concentration in C57BL6 mouse at 10 ml/kg, sc measured after 2 hrs by LC-MS/MS analysis; assay type: ADME, organism-based; details: plasma
# [10] = Unbound drug concentration in brain of Sprague-Dawley rat model of chronic constriction injury-induced neuropathic pain at 1 mg/kg, sc; assay type: ADME, organism-based; details: in vivo
# [11] = molecular target: T2, Citron Rho-interacting kinase (Homo sapiens, UniProt O14578); test: Inhibition of CRIK (unknown origin) by Kinomescan method
# T2 sequence (O14578 whole entry): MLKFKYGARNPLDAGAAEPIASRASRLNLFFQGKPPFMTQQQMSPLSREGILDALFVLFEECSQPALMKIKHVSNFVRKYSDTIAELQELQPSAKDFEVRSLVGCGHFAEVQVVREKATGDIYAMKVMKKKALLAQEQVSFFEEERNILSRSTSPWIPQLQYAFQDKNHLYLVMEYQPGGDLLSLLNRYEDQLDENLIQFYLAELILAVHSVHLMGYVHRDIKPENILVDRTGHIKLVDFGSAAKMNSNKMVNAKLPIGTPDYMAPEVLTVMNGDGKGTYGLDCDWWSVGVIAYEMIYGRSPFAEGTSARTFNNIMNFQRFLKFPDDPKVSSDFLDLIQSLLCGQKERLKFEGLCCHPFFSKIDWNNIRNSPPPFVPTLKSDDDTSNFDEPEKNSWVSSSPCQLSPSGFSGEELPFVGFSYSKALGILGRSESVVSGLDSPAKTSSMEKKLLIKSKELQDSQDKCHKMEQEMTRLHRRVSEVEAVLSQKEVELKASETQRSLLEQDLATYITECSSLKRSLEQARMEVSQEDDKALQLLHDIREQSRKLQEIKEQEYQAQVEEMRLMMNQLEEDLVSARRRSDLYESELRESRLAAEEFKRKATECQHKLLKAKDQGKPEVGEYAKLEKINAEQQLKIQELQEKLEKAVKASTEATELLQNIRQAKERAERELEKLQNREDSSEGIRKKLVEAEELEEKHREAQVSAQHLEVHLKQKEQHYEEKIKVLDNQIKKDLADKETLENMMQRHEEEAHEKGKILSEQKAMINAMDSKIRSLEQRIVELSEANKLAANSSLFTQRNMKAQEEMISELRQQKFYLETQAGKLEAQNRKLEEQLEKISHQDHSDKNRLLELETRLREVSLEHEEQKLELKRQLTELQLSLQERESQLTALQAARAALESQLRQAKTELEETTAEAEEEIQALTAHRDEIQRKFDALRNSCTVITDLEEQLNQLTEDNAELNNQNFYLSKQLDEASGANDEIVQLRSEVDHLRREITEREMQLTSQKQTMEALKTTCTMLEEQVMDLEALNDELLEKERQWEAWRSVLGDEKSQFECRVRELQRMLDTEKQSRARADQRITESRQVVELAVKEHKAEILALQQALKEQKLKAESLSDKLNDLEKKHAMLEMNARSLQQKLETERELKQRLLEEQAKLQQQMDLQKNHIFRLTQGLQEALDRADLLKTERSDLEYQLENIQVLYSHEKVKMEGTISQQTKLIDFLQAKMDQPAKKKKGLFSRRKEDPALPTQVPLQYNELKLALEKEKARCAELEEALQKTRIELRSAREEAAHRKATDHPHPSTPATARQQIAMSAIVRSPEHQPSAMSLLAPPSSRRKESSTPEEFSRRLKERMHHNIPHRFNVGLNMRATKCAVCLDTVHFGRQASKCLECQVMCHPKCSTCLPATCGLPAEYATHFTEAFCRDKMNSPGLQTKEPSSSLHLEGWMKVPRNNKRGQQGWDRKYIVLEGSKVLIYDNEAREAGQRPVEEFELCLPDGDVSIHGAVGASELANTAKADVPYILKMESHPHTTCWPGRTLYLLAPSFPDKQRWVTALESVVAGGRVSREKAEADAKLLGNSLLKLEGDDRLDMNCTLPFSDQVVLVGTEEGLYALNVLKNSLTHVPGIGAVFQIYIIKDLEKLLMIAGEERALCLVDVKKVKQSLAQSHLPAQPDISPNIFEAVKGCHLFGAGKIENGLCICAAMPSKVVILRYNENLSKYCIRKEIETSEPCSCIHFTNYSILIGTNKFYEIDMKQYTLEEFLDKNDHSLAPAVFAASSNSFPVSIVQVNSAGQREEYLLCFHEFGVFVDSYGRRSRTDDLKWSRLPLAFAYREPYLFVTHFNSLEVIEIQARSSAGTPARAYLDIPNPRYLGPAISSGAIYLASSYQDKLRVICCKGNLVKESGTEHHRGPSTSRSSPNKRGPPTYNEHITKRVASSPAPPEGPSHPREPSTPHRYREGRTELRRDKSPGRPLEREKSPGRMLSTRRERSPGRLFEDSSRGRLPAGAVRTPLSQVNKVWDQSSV
# Rattus norvegicus [12] = test: Antinociceptive activity in Sprague-Dawley rat model of chronic constriction injury-induced neuropathic pain assessed as reduction in paw withdrawal latency at 60 mg/kg, sc by Von Frey test; assay type: functional, organism-based
# [13] = Unbound brain-to-plasma concentration ratio in C57BL6 mouse at 30 mg/kg, sc; assay type: ADME, organism-based; details: read-out: K(p,uu,brain)
# [14] = Drug concentration in plasma of Sprague-Dawley rat model of chronic constriction injury-induced neuropathic pain at 10 mg/kg, sc; assay type: ADME, organism-based; details: in vivo
# [15] = molecular target: T1, AP2-associated protein kinase 1; test: Inhibition of recombinant GST-Xa-tagged human AAK1 (30 to 330 residues) using 5-FAM-labelled Alla-KEEQSQITSQVTGQIGWR-NH2 peptide as substrate incubated for 3 hrs in presence of ATP by electrophoretic analysis
# [16] = molecular target: T2, Citron Rho-interacting kinase; test: Inhibition of CRIK (unknown origin) assessed as residual binding level at 1 uM by Kinomescan method relative to control
# [17] = molecular target: AP2-associated protein kinase 1 (Mus musculus) (UniProt Q3UHJ0); test: In vivo inhibition of AAK1 in C57BL6 mouse assessed as suppression of mu2 phosphorylation in brain lysate at 10 mg/kg, sc measured after 30 mins by Western blot analysis relative to control; assay type: functional, organism-based
# [18] = Drug concentration in C57BL6 mouse brain at 10 ml/kg, sc measured after 2 hrs by LC-MS/MS analysis; assay type: ADME, organism-based; details: read-out: Ct
# [19] = Drug concentration in plasma of Sprague-Dawley rat model of chronic constriction injury-induced neuropathic pain at 3 mg/kg, sc; assay type: ADME, organism-based; details: in vivo
# [20] = molecular target: BMP-2-inducible protein kinase (Homo sapiens, UniProt Q9NSY1); test: Inhibition of wild-type human partial length BIKE (S34 to N329 residues) expressed in bacterial expression system assessed as residual binding level at 1 uM by Kinomescan method relative to control
# [21] = molecular target: T3, MAP kinase-interacting serine/threonine-protein kinase 2 (Homo sapiens, UniProt Q9HBH9); test: Inhibition of wild-type human partial length MKNK2 (G63 to S388 residues) expressed in mammalian expression system assessed as residual binding level at 1 uM by Kinomescan method relative to control
# [22] = molecular target: T3, MAP kinase-interacting serine/threonine-protein kinase 2; test: Inhibition of wild-type human partial length MKNK2 (G63 to S388 residues) expressed in mammalian expression system by Kinomescan method
# [23] = Ratio of drug concentration in brain to plasma of Sprague-Dawley rat model of chronic constriction injury-induced neuropathic pain at 60 mg/kg, sc measured after 240 mins; assay type: ADME, organism-based; details: read-out: BPR
# [24] = molecular target: Protein kinase C theta type (Homo sapiens, UniProt Q04759); test: Inhibition of PKCtheta (unknown origin)
# [25] = Drug concentration in plasma of Sprague-Dawley rat model of chronic constriction injury-induced neuropathic pain at 1 mg/kg, sc; assay type: ADME, organism-based; details: in vivo
# [26] = Inhibition of PKA (unknown origin); design: species or system Homo sapiens
# Mus musculus [27] = test: Antinociceptive activity against formalin-induced nociceptive behavior in C57BL6 mouse assessed as reduction in phase 2 hind paw licking/biting at 30 mg/kg, sc administered 60 mins prior to formalin challenge by formalin test; assay type: functional, organism-based
# Mus musculus [28] = test: Antinociceptive activity against formalin-induced nociceptive behavior in C57BL6 mouse assessed as reduction in phase 1 hind paw flinching at 30 mg/kg, sc administered 60 mins prior to formalin challenge by formalin test; assay type: functional, organism-based
# [29] = molecular target: Phosphatidylinositol 5-phosphate 4-kinase type-2 beta (Homo sapiens) (UniProt P78356); test: Inhibition of wild-type human full length PIP5K2B (M1 to T416 residues) expressed in bacterial expression system assessed as residual binding level at 1 uM by Kinomescan method relative to control
# Phosphatidylinositol 5-phosphate 4-kinase type-2 beta (Homo sapiens), sequence (P78356 whole entry, the tested form may be a part): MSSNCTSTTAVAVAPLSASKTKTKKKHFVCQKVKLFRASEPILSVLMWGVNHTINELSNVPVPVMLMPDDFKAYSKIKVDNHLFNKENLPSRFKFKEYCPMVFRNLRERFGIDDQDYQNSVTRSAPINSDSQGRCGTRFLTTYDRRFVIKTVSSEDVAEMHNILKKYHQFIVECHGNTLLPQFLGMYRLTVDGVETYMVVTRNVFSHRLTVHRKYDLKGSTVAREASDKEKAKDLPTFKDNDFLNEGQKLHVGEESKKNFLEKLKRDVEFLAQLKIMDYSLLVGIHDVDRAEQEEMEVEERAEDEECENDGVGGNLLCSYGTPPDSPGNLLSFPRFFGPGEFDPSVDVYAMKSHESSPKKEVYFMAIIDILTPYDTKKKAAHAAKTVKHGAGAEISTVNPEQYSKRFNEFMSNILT
# [30] = molecular target: Cyclin-G-associated kinase (Homo sapiens, UniProt O14976); test: Inhibition of wild-type human partial length GAK (G13 to Y338 residues) expressed in bacterial expression system by Kinomescan method
# Rattus norvegicus [31] = test: Antinociceptive activity in Sprague-Dawley rat model of chronic constriction injury-induced neuropathic pain assessed as reduction in thermal hyperalgesia 3 mg/kg, sc by Von Frey test relative to control; assay type: functional; design: scale not given: the % may be the effect or the level left
# [32] = Aqueous solubility of the compound at pH 1; assay type: physicochemical
# [33] = Drug concentration in Sprague-Dawley rat plasma at 10 mg/kg, sc measured after 190 mins; assay type: ADME, organism-based
# [34] = Drug concentration in plasma of C57BL6 mouse at 30 mg/kg, sc; assay type: ADME, organism-based; details: in vivo
# Mus musculus [35] = test: Antinociceptive activity against formalin-induced nociceptive behavior in C57BL6 mouse assessed as reduction in phase 2 hind paw flinching at 30 mg/kg, sc administered 60 mins prior to formalin challenge by formalin test; assay type: functional, organism-based
# Rattus norvegicus [36] = test: Antinociceptive activity in Sprague-Dawley rat model of chronic constriction injury-induced neuropathic pain assessed as reduction in mechanical hyperalgesia 60 mg/kg, sc by Von Frey test relative to control; assay type: functional; design: scale not given: the % may be the effect or the level left
# Rattus norvegicus [37] = test: Antinociceptive activity in Sprague-Dawley rat model of chronic constriction injury-induced neuropathic pain assessed as reduction in thermal hyperalgesia 60 mg/kg, sc by Von Frey test relative to control; assay type: functional; design: scale not given: the % may be the effect or the level left
smiles,measurement,setting,value
CC(C)C[C@@H](N)C(=O)Nc1ccc(-c2cnco2)c(OC(F)F)c1,concentration,[1],350 nM
same,IC50,[2],51 nM
same,Drug uptake(free),[3],0.2 µM
same,Activity,[4],13%
same,Activity,Mus musculus [5],Active
same,inhibition,[6],13%
same,concentration,[7],9.1 µM
same,permeability,[8],113 10^-6 cm/s
same,concentration at 2 h,[9],17.7 µM
same,Drug uptake(free),[10],0.01 µM
same,IC50,[11],120 nM
same,Activity,Rattus norvegicus [12],Active
same,Kp uu,[13],0.71
same,concentration,[14],11 µM
same,IC50,[15],12 nM
same,Activity,[16],0.7%
same,inhibition,[17],56%
same,concentration at 2 h,[18],18.5 µM
same,concentration,[19],1100 nM
same,Activity,[20],6.2%
same,Activity,[21],1.4%
same,IC50,[22],428 nM
same,Kp at 4 h,[23],0.5
same,IC50,[24],1330 nM
same,concentration,[25],400 nM
same,IC50,[26],570 nM
same,Activity,Mus musculus [27],Active
same,Activity,Mus musculus [28],Active
same,Activity,[29],6.2%
same,IC50,[30],1060 nM
same,Activity,Rattus norvegicus [31],35%
same,solubility,[32],5850 µg/mL
same,concentration at 3.167 h,[33],7.4 µM
same,concentration,[34],37 µM
same,Activity,Mus musculus [35],Active
same,Activity,Rattus norvegicus [36],45%
same,Activity,Rattus norvegicus [37],113%
